How the values were obtained:
adjuvant arthritis model = details: model for rheumatoid arthritis; cited from earlier work
transplant rejection = details: in vivo; cited from earlier work
Candida albicans = details: both in vitro and in vivo; cited from earlier work
IGE-like antibodies = details: in vivo; cited from earlier work
[1] = cited from earlier work
[2] = system: experimental allergic encephalomyelitis model; details: model for multiple sclerosis; cited from earlier work
[3] = system: cells from the thymus of normal BALB/c mice; assay: comitogen-induced thymocyte proliferation procedure (LAF); format: cell-based; details: PHA and IL-1, 72 hours, tritiated thymidine last six hours
Experimental: Immunosuppresive activity of the compounds of the present invention was evaluated in an in vitro standard pharmacological test procedure to measure lymphocyte proliferation (LAF).
Briefly, cells from the thymus of normal BALB/c mice were cultured for 72 hours with PHA and IL-1 and pulsed with tritiated thymidine during the last six hours. […] Cells are harvested and incorporated; radioactivity is determined. Inhibition of lymphoproliferation is assessed in percent change in counts per minute from non-drug treated controls. The results are expressed by the following ratio: [formula]

SMILES | R/*A at 10 nM (relative potency of analogs/rapamycin) [3] | R/*A at 100 nM (relative potency of analogs/rapamycin) [3] | further results
CO[C@H]1C[C@@H]2CC[C@@H](C)[C@@](O)(O2)C(=O)C(=O)N2CCCC[C@H]2C(=O)O[C@H]([C@H](C)C[C@@H]2CC[C@@H](O)[C@H](OC)C2)CC(=O)[C@H](C)/C=C(\C)[C@@H](O)[C@@H](OC)C(=O)[C@H](C)C[C@H](C)/C=C/C=C/C=C/1C [Rapamycin] |  |  | effect in the adjuvant arthritis model (adjuvant arthritis model): effective; inhibiting transplant rejection (transplant rejection): effective in inhibiting transplant rejection; antifungal activity (Candida albicans): antifungal activity; inhibition of the formation of IGE-like antibodies (IGE-like antibodies): effectively inhibited; antitumor activity ([1]; alone): antitumor activity; antitumor activity in combination ([1]; in combination with picibanil): antitumor activity; effect in the experimental allergic encephalomyelitis model [2]: effective
CO[C@H]1C[C@@H]2CC[C@@H](C)[C@@](O)(O2)C(=O)C(=O)N2CCCC[C@H]2C(=O)O[C@H]([C@H](C)C[C@@H]2CC[C@@H](OC(=O)CCCCC(=O)O[C@@H]3CC[C@@H](C[C@@H](C)[C@@H]4CC(=O)[C@H](C)/C=C(\C)[C@@H](O)[C@@H](OC)C(=O)[C@H](C)C[C@H](C)/C=C/C=C/C=C(\C)[C@@H](OC)C[C@@H]5CC[C@@H](C)[C@@](O)(O5)C(=O)C(=O)N5CCCC[C@H]5C(=O)O4)C[C@H]3OC)[C@H](OC)C2)CC(=O)[C@H](C)/C=C(\C)[C@@H](O)[C@@H](OC)C(=O)[C@H](C)C[C@H](C)/C=C/C=C/C=C/1C [Example 1, Rapamycin-42,42'-diester with hexanedioic acid] | 0.95 | 1.0 | 
CO[C@H]1C[C@@H]2CC[C@@H](C)[C@@](O)(O2)C(=O)C(=O)N2CCCC[C@H]2C(=O)O[C@H]([C@H](C)C[C@@H]2CC[C@@H](OC(=O)CCCCCCC(=O)O[C@@H]3CC[C@@H](C[C@@H](C)[C@@H]4CC(=O)[C@H](C)/C=C(\C)[C@@H](O)[C@@H](OC)C(=O)[C@H](C)C[C@H](C)/C=C/C=C/C=C(\C)[C@@H](OC)C[C@@H]5CC[C@@H](C)[C@@](O)(O5)C(=O)C(=O)N5CCCC[C@H]5C(=O)O4)C[C@H]3OC)[C@H](OC)C2)CC(=O)[C@H](C)/C=C(\C)[C@@H](O)[C@@H](OC)C(=O)[C@H](C)C[C@H](C)/C=C/C=C/C=C/1C [Example 3, Rapamycin-42,42'-diester with octanedioic acid] | 0.59 | 1.0 | 
CO[C@H]1C[C@@H]2CC[C@@H](C)[C@@](O)(O2)C(=O)C(=O)N2CCCC[C@H]2C(=O)O[C@H]([C@H](C)C[C@@H]2CC[C@@H](OC(=O)CCCCCCCC(=O)O[C@@H]3CC[C@@H](C[C@@H](C)[C@@H]4CC(=O)[C@H](C)/C=C(\C)[C@@H](O)[C@@H](OC)C(=O)[C@H](C)C[C@H](C)/C=C/C=C/C=C(\C)[C@@H](OC)C[C@@H]5CC[C@@H](C)[C@@](O)(O5)C(=O)C(=O)N5CCCC[C@H]5C(=O)O4)C[C@H]3OC)[C@H](OC)C2)CC(=O)[C@H](C)/C=C(\C)[C@@H](O)[C@@H](OC)C(=O)[C@H](C)C[C@H](C)/C=C/C=C/C=C/1C [Example 4, Rapamycin-42,42'-diacid with nonanedioic acid] | 1.10 | 1.0 | 
CO[C@H]1C[C@@H]2CC[C@@H](C)[C@@](O)(O2)C(=O)C(=O)N2CCCC[C@H]2C(=O)O[C@H]([C@H](C)C[C@@H]2CC[C@@H](OC(=O)CCCCCC(=O)O[C@@H]3CC[C@@H](C[C@@H](C)[C@@H]4CC(=O)[C@H](C)/C=C(\C)[C@@H](O)[C@@H](OC)C(=O)[C@H](C)C[C@H](C)/C=C/C=C/C=C(\C)[C@@H](OC)C[C@@H]5CC[C@@H](C)[C@@](O)(O5)C(=O)C(=O)N5CCCC[C@H]5C(=O)O4)C[C@H]3OC)[C@H](OC)C2)CC(=O)[C@H](C)/C=C(\C)[C@@H](O)[C@@H](OC)C(=O)[C@H](C)C[C@H](C)/C=C/C=C/C=C/1C [Example 2, Rapamycin-42,42'-diester with heptanedioic acid] | 0.28 | 0.96 | 
